In article PMC9184620, “TAS1553, a small molecule subunit interaction inhibitor of ribonucleotide reductase, exhibits antitumor activity by causing DNA replication stress” (Communications Biology, 2022):
Read-outs that look alike come from different tables or passages of the source. Ends that are not written are not given here.

What was measured:
[1] = molecular target: T1, RNR (R1 and R2 recombinant proteins) (Homo sapiens, UniProt P23921); assay: RNR assay (formation of dCDP from CDP); type: biochemical
T1 construct: made in house; host or cells: Escherichia coli
T1 sequence (P23921 1-792): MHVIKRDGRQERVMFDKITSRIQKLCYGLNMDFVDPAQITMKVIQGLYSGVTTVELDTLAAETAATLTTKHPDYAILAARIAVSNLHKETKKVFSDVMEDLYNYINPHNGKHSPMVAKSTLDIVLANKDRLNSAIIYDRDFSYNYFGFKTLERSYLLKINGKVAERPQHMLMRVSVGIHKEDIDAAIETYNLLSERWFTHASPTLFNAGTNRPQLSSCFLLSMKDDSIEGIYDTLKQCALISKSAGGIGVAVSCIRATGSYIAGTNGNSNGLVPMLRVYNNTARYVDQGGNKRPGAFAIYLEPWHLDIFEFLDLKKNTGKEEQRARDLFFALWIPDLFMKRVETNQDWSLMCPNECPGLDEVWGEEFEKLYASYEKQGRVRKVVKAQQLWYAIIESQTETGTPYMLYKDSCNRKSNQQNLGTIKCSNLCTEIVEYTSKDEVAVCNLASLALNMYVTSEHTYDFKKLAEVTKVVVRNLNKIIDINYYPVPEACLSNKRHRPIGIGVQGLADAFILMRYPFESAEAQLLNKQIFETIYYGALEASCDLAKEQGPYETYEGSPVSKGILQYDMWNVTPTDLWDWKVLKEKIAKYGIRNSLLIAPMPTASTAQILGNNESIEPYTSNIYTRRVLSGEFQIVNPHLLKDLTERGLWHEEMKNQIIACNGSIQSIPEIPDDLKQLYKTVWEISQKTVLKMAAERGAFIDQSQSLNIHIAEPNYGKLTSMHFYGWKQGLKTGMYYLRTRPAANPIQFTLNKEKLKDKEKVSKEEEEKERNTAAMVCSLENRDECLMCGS
Experimental: The binding affinity of TAS1553 to the R1 subunit was investigated using surface plasmon resonance (SPR) binding analysis. […] Next, we evaluated the inhibitory effect of TAS1553 against the enzymatic activity of RNR, consisting of R1 and R2 recombinant proteins. RNR activity was determined by its ability to reduce cytidine diphosphate (CDP) to deoxycytidine diphosphate (dCDP), based on a previous report. […] In addition to the inhibitory effect on RNR, TAS1553 was evaluated in a Eurofins LeadProfilingScreen panel assay including 68 proteins, such as ion channels, transporters, nuclear receptors, and G protein-coupled receptors, to examine its potential adverse activity.
The inhibition of RNR activity by the test compound was evaluated by measuring the formation of dCDP from CDP, as reported previously. The assay was performed for 30 min at 37 °C in a reaction mixture composed of 50 mmol/L HEPES, 4 mmol/L magnesium acetate, 100 mmol/L KCl, 6 mmol/L DTT, 2 mmol/L ATP, 0.24 mmol/L NADPH, 10.0 µmol/L CDP, 0.1 mg/mL BSA, 8.0 µg/mL His-R1, 2.4 µg/mL His-R2, and 1% DMSO with or without test compound. The reaction was discontinued by heat treatment at 95 °C for 5 min. The amount of dCDP after the reaction was quantified by a prominence HPLC system and LabSolutions software (SHIMADZU CORPORATION). Separations were performed at 265 nm in a Shim-pack XR-ODS column of particle size 2.2 μm (100 × 3.0 mm, SHIMADZU GLC Ltd.). Overall, 5 µL of each sample was injected, and chromatography was performed at 40 °C. Mobile A was composed of 10 mmol/L potassium dihydrogenphosphate, 10 mmol/L tetrabutylammonium hydroxide, 0.25% methanol and 8 mmol/L HCl. Mobile B was composed of 50 mmol/L potassium dihydrogenphosphate, 5.6 mmol/L tetrabutylammonium hydroxide, and 30% methanol. The gradient was as follows: 52–60% B for 9 min, 60–99% B for 1 min, 99% B for 5 min, 99–52% B for 1 min, and 52% B for 5 min. The flow rate was 0.5 mL/min. The experiment was performed in triplicates. IC50 values were calculated using the SAS software package.

[2] = molecular target: T2, interaction between R1 and R2 (human RNR) (Homo sapiens, UniProt P23921); assay: AlphaLISA binding assay (interaction between His-R1 and GST-R2); details: recombinant R1 and R2; mean ± SD
T2 construct: host or cells: Escherichia coli (His-R1)
T2 sequence (P23921 1-792): T1 sequence (P23921 1-792)

[3] = test system: HCC38 xenograft; assay: Antitumor activity in mice bearing HCC38 xenografts; type: in vivo, mouse
Experimental: (§1) Next, we evaluated the antitumor activity of a high-dose administration of TAS1553 and cytarabine in rats bearing MV-4-11 xenografts. […] The rats were treated with cytarabine for 5 days at 16 and 32 mg/kg. […] In addition to the hematologic tumor, we evaluated the antitumor activity of TAS1553 in mice implanted with HCC38 cell line as a solid tumor model. […] Finally, TAS1553 was evaluated for its survival benefit in a mouse model. To achieve this, we established mice bone marrow cells harboring the human MLL-AF9 fusion gene, which is known as a driver gene for AML in humans as well as mice[48]. Mice were transplanted with the cells through the tail vein and the treatment with TAS1553 was started 11 days post-implantation.
(§2) For the subcutaneous implantation model of MV-4-11, F344/NJcl-rnu/rnu rats were irradiated with X-ray (4 Gy) to improve the efficiency of xenograft implantation. Two days after X-ray irradiation, MV-4-11 cells suspended in PBS with 50 vol% Matrigel were inoculated into the rats (2 × 10^7 cells/animal). In the mice subcutaneous implantation model, HCC38 cells suspended same as above were inoculated into male BALB/cAJcl-nu/nu mice (1 × 10^7 cells /body). The animals were randomized and administered with the compound for 14 days. Antitumor activity and body weight change were evaluated as previously reported. Dunnett test using the SAS software package in EXSUS (CAC Croit) was used to compare the tumor volume (P < 0.05).

[4] = molecular target: T3, human R1 (Homo sapiens, UniProt P23921); assay: Fluorescence polarization binding assay (displacement of TAMRA-labeled P7 from R1); details: for IC50: R1 and TAMRA-labeled P7, mean ± SD, three independent experiments, read-out: IC50, fluorescent polarization binding assay
T3 construct: made in house; host or cells: Escherichia coli
T3 sequence (P23921 1-792): T1 sequence (P23921 1-792)
Source text: Fig. 1 Design and identification of the small molecule compound TAS1553 blocking the interaction between RNR subunits. a A schematic representation of the fluorescent polarization binding assay. TAMRA-labeled P7 heptapeptide was used as a probe. […] Data are presented as mean ± SD obtained from three independent experiments. c Chemical structures of compound 1 and TAS1553. d Superposition of the X-ray co-crystal structure of human RRM1 (green) with compound 1 (magenta) (PDB ID: 6L3R) to the previously determined X-ray co-crystal structure of Saccharomyces cerevisiae RNR1 (cyan) with P7 peptide (yellow) (PDB ID: 2ZLF). The residue numbers and protein surface shown here are those of hRRM1. e SPR analysis for the binding of TAS1553 to human R1 captured onto Series S Sensor Chip NTA. […] IC50 (mean ± SD) is determined from three independent experiments performed in triplicate.
TAMRA-labeled P7 peptide was obtained from Peptide Institute, Inc. to be used as a fluorescent probe in the FP binding assay. The final reaction mixture was composed of 50 mmol/L Tris-Cl (pH 8.0), 10 mmol/L DTT, 10 nmol/L TAMRA-P7, 32 ng/mL His-R1, and 1% DMSO with or without test compound. The assay was performed for 120 min at room temperature with protection from light, after which FP of each sample was measured with a PHERAstarFS. IC50 values were calculated using the SAS software package in EXSUS (CAC Croit).

[5] = test system: MV-4-11 xenograft; assay: Antitumor activity in rats bearing MV-4-11 xenografts; type: in vivo; details: 32 mg/kg intravenously for 5 consecutive days
Experimental: as §1, with “mice[48].” for “mice[48]. Mice were transplanted with the cells through the tail vein and the treatment with TAS1553 was started 11 days post-implantation.”
as §2, with “The animals were randomized and administered with the compound for 14 days.” left out

[6] = molecular target: T4, 6x His-tagged recombinant human R1 (RRM1) (human, UniProt P23921 1-792); assay: fluorescence polarisation; competition: 10 nmol/L TAMRA-P7 probe, 32 ng/mL His-R1, with or without test compound; 50 mmol/L Tris-Cl pH 8.0, 10 mmol/L DTT, 1% DMSO; 120 min, room temperature; details: both partners purified
T4 construct: also called His-R1; hRRM1
T4 sequence (looked up): T1 sequence (P23921 1-792)

[7] = molecular target: T4, 6x His-tagged recombinant human R1 …; assay: AlphaScreen or HTRF; AlphaLISA: 4.3 ug/mL His-R1 (Nickel Chelate Acceptor beads), 3.3 ug/mL GST-R2 (Glutathione Donor beads), with or without test compound; 50 mmol/L HEPES, 4 mmol/L magnesium acetate, 100 mmol/L KCl, 6 mmol/L DTT, 2 mmol/L ATP, 0.24 mmol/L NADPH, 0.010 mmol/L CDP, 0.1 vol% polysorbate 20, 1 vol% DMSO; 60 min, room temperature; details: both partners purified
[8] = CDP to dCDP, mean ± SD, read-out: Enzyme IC50

With `NC(=O)NO` [HU, Hydroxyurea, reference compound] the IC50 [1, 8] was 188 ± 32 µM and the IC50 [2] was > 1000 µM.

In the case of `CCCCCOC(=O)Nc1nc(=O)n([C@@H]2O[C@H](C)[C@@H](O)[C@H]2O)cc1F` [capecitabine], the T/C ratio ([3]; 539 mg/kg oral once daily for 14 days (maximum tolerated dose)) is reported as 67.9%.

With `CN(C)c1cccc2c(S(=O)(=O)N[C@@H](Cc3ccccc3)C(=O)O)cccc12` [Dansyl-L-phenyl alanine, reference compound] the IC50 [4] was 3340 ± 540 µM.

With `O=C(Nc1nc(-c2ccc(O)c(O)c2)c(-c2ccccc2)s1)c1ccc(O)c(O)c1` [COH29] the IC50 [1, 8] was 6.76 ± 0.71 µM.

Ac-FTLDADF [P7, N-AcFTLDADF] showed an IC50 [1] of 14.5 ± 1 µM.

With `O=C(N[C@@H](Cc1ccccc1)C(=O)O)OCC1c2ccccc2-c2ccccc21` [Fmoc-L-phenylalanine, reference compound] the IC50 [4] was 934 ± 35 µM.

Molecule `NC(=S)N/N=C/c1ncccc1N` [3-AP, Triapine] has an IC50 [1, 8] of 0.364 ± 0.106 µM.

Work on `CC(=O)O[C@H]1C(=O)[C@@]2(C)[C@H]([C@H](OC(=O)c3ccccc3)[C@]3(O)C[C@H](OC(=O)[C@H](O)[C@@H](NC(=O)c4ccccc4)c4ccccc4)C(C)=C1C3(C)C)[C@]1(OC(C)=O)CO[C@@H]1C[C@@H]2O` [paclitaxel] yielded a T/C ratio ([3]; 20 mg/kg intravenously once a week) of 63.6%.

In the case of `C[C@H](c1cccc2ccccc12)[C@H](NS(=O)(=O)c1ccc(Br)cc1)c1n[nH]c(=O)o1` [compound 1, 4-bromo-N-[(1S,2R)-2-(naphthalen-1-yl)-1-(5-oxo-4,5-dihydro-1,3,4-oxadiazol-2-yl)propyl]benzenesulfonamide], the “potency relative to Fmoc-L-phenylalanine (binding inhibition)” value ([4]; FP binding IC50 ratio) is reported as ~ 2000 fold and the IC50 [4] is reported as 0.527 ± 0.021 µM.

With `Nc1ccn([C@@H]2O[C@H](CO)[C@@H](O)[C@@H]2O)c(=O)n1` [cytarabine, reference compound] the T/C ratio [5] was 77.4%.

B1: P7 heptapeptide (N-AcFTLDADF) (peptide)
peptide: Ac-FTLDADF
notes: also called unlabeled P7; P7 peptide; source: synthetic peptide; bought: Peptide Institute, Inc
B1 was tested, and the IC50 [6] was 2.49 µM and the IC50 [7] was 9.22 µM.

B2: TAMRA-labeled P7 peptide (peptide)
peptide: FTLDADF
modifications: also: TAMRA label, site not given here
notes: also called TAMRA-P7; fluorescence tagged P7; source: synthetic peptide; bought: Peptide Institute, Inc
B2: binds [6].
